Source: US20250257041A1, “INDUCERS OF INTEGRATED STRESS RESPONSE TO TREAT CANCER” (The Board of Regents of The University of Texas System, priority 2022, published 2025)
Like-named read-outs stand apart in the source and are kept apart here.

Key:
Jurkat (Leukemia) cells = test: Jurkat viability and cytotoxicity, GF-AFC and Cytox; type: cell-based, human; conditions: varying doses
Protocol: FIG. 6A provides cytotoxicity studies for leukemia cells (Jurkat) with compound SW388710. […] Jurkat (Leukemia) cells were incubated with varying doses of SW388710.

phospho-GCN2 = test: Western blot for phospho-GCN2 in HCT116 wild-type and RPS23 mutant cells; type: cell-based, human; conditions: wild-type HCT116 versus RPS23 del R107-G109 mutant
Protocol: FIG. 12 is a western blot analysis showing the RPS23 is required for induction of GCN2 phosphorylation by SW710 (SW388710). Cells were incubated with SW710, lysed, then evaluated via western blot for phospho-GCN2, a marker of activation of the integrated stress response.
To confirm this hypothesis, wild-type HCT116 cells and HCT116 RPS23 del R107-G109 mutant cells were incubated with SW388710. Cells were lysed and evaluated via western blot for phospho-GCN2, a marker of activation of the integrated stress response.

Jurkat cells = test: Jurkat cell proliferation over three days, Cell Titer Glo; type: cell-based, human
Protocol: (§1) FIG. 5A provides cell proliferation studies using Jurkat cells using exemplary novel compounds provided in the current disclosure. Jurkat cells, which are derived from a human leukemia, were incubated with varying concentrations of SW388710. Cell proliferation over three days was evaluated using luminescence from Cell Titer Glo (Promega) which reflects ATP levels.
as §1, with “5B” for “5A”, “SW393071.” for “SW388710.”

HCT116 GCN2KO = test: Proliferation of HCT116 cells with GCN2 knocked out (CRISPR), Cell TiterGlo; type: cell-based, human; conditions: for IC50: Homo sapiens
Protocol: Briefly, compounds were tested for their effect on proliferation of HCT116 colorectal cell lines using Cell TiterGlo (Promega). Each compound was tested in a 10-point dose response experiment in triplicate. Multiple values in the column titled HCT116 WT reflect separate independent experiments. The three columns titled “HCT116 WT (repeat)”, “HCT116-CGN2KO” and “HCT116 WT+ISRIB” provide data for selected compounds that were tested simultaneously under three conditions. The HCT116 WT column lists IC50 against the wild type HCT116 colorectal cancer cell line. The HCT116-CGN2KO lists IC50 data for cells in which one component of the integrated stress response, GCN2, has been knocked out using CRISPR technology.

[1] = test system: HCT-116 (colorectal) cells; test: HCT-116 viability and cytotoxicity, GF-AFC and Cytox; type: cell-based, human; conditions: varying doses
Protocol: FIG. 6B provided cytostatic data for colorectal cells, with compound SW388710. […] HCT-116 (colorectal) cells were incubated with varying doses of SW388710.

HCT116 WT = test: Proliferation of HCT116 colorectal cell line, Cell TiterGlo; type: cell-based, human
Method in brief: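 HCT116 colorectal cells, wild type, GCN2 CRISPR knockout, or wild type plus ISRIB; proliferation read by CellTiter-Glo luminescence. 10-point dose response in triplicate, IC50 reported; multiple values are independent experiments.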

RPS23 = target: T1, RPS23 (Homo sapiens, UniProt P62266); test: Photo-crosslinking in HCT116 cells, biotin-azide click, streptavidin pull-down, western blot for RPS23; type: binding; conditions: HCT116 wild-type or RPS23 del R107-G109 mutant, UV irradiation
T1 construct: endogenous in cells; host or cells: HCT116
Protocol: Next HCT116 cells were incubated with SW393071 analogs conjugated to a photo-crosslinker (analogs: SW393065, SW393212 and SW393213), and irradiated with UV light. The cells were lysed and click-conjugated to biotin-azide. Drug-bound proteins were pulled down with streptavidin coated beads and resolved on an SDS-PAGE gel.
Wild-type or RPS23 del R107-G109 knock-in mutant HCT116 cells were incubated with photo-crosslinker analog SW393212 and irradiated with UV light. The cells were lysed, and click-conjugated to biotin-azide essentially as shown in Example 7. Drug-bound proteins were pulled down with streptavidin coated beads and resolved on an SDS-PAGE gel.

[2] = Solubility remark printed in the HCT116 WT column; type: physicochemical; conditions: cell wraps over r19 and r20: poor solubility
[3] = HCT-116, HCT116 cells with GCN2 knocked out using CRISPR, read-out: HCT116 IC50 (uM) HCT116 − GCN2KO
[4] = Homo sapiens, HCT-116, wild type HCT116, 10-point dose response in triplicate, multiple values = separate independent experiments, read-out: HCT116 IC50 (uM) HCT116 WT
[5] = Homo sapiens, HCT-116, wild type HCT116, tested simultaneously with GCN2KO and +ISRIB, read-out: HCT116 IC50 (uM) HCT116 WT (repeat)
[6] = wild type HCT116, compound plus 10 nM of ISRIB, read-out: HCT116 IC50 (uM) HCT116 WT + ISRIB

Row | IC50 (HCT116 GCN2KO; [3]) [µM] | IC50 (HCT116 WT; [4]) [µM] | IC50 (HCT116 WT; [5]) [µM] | IC50 (HCT116 WT; [6]) [µM] | Structure (SMILES) | also measured
1 | 1.95 | 0.23 | 0.21 | 1.89 | COc1cccc(C(=O)Nc2cc(-c3ccc(NC(=O)c4ccccc4)cc3)nn2C)c1 [SW388710, N-(3-(4-Benzamidophenyl)-1-methyl-1H-pyrazol-5-yl)-3-methoxybenzamide] | Cell death in leukemic cells (Jurkat (Leukemia) cells): induces cell death in leukemic cells; Activation of the ISR (phosphorylation of GCN2) (phospho-GCN2): Wild-type but not RPS23 mutant cells, showed activation of the ISR; IC50 (Jurkat cells; Homo sapiens, Jurkat, 72 h, three days, Cell Titer Glo luminescence): 0.0782 µM; Effect of ISRIB on anti-proliferative activity in Jurkat cells (Jurkat cells; addition of 10 nM of ISRIB): relative resistance; Resistance on knockout of GCN2 (HCT116 GCN2KO; HCT116, GCN2 but not other activating kinases): confers resistance; Proliferation of colorectal cancer cells [1]: reduces the proliferation of colorectal cancer cells
2 |  | 0.72 |  |  | C#Cc1cccc(C(=O)Nc2cc(-c3ccc(NC(=O)c4cc(N=[N+]=[N-])ccc4Cl)cc3)nn2C)c1 [SW393212, 5-Azido-2-chloro-N-(4-(5-(3-ethynylbenzamido)-1-methyl-1H-pyrazol-3-yl)phenyl)benza-mide] | RPS23 bands after photo-crosslinking pull-down (RPS23): bands from WT but not RPS23 mutant cells
3 |  |  |  |  | Cn1nc(-c2ccc(NC(=O)c3ccccc3)cc2)cc1NC(=O)c1ccc(C(=O)c2ccccc2)cc1 [SW389003, N-(3-(4-Benzamidophenyl)-1-methyl-1H-pyrazol-5-yl)-4-benzoylbenzamide] | IC50 (HCT116 GCN2KO; HCT-116, read-out: HCT116 IC50 (uM) HCT116 − GCN2KO): ≥ 50 µM; IC50 (HCT116 WT; Homo sapiens, HCT-116, read-out: HCT116 IC50 (uM) HCT116 WT (repeat)): ≥ 50 µM; Solubility (remark in place of an IC50) [2]: poor
4 | 2.22 | 0.298 | 0.28 | 2.45 | Cc1cccc(C(=O)Nc2cc(-c3ccc(NC(=O)c4ccccc4)cc3)nn2C)c1 [SW389156, N-(3-(4-Benzamidophenyl)-1-methyl-1H-pyrazol-5-yl)-3-methylbenzamide] | 
5 | 0.21 | 0.01 | 0.03 | 0.3 | Cn1nc(-c2ccc(NC(=O)c3ccccc3Br)cc2)cc1NC(=O)c1ccccc1 [SW393133, N-(4-(5-benzamido-1-methyl-1H-pyrazol-3-yl)phenyl)-2-bromobenzamide] | 
6 | 7.75 | 5.7 | 7.47 | 7.22 | Cn1nc(-c2ccc(NC(=O)c3cccc(C(=O)c4ccccc4)c3)cc2)cc1NC(=O)c1ccccc1 [SW389004, N-(4-(5-Benzamido-1-methyl-1H-pyrazol-3-yl)phenyl)-3-benzoylbenzamide] | 
7 | ≥ 50 | > 50 | ≥ 50 |  | C#Cc1ccc(C(=O)Nc2cc(-c3ccc(NC(=O)c4ccccc4)cc3)nn2C)cc1 [SW389008, N-(3-(4-Benzamidophenyl)-1-methyl-1H-pyrazol-5-yl)-4-ethynylbenzamide] | 
8 | 6.64 | 0.5 | 1.46 | 7.5 | Cn1nc(-c2ccc(NC(=O)c3cccnc3)cc2)cc1NC(=O)c1ccccc1 [SW393127, N-(4-(5-benzamido-1-methyl-1H-pyrazol-3-yl)phenyl)nicotinamide] | 
9 | 22 | 16 | 9.06 | 23.3 | Cn1nc(-c2ccc(NS(=O)(=O)c3ccccc3)cc2)cc1NC(=O)c1ccccc1 [SW393070, N-(1-methyl-3-(4-(phenylsulfonamido)phenyl)-1H-pyrazol-5-yl)benzamide] | 
10 | 4.72 | 0.95 | 2.11 | 4.03 | Cn1nc(-c2ccc(NC(=O)c3ccccc3)cc2)cc1NC(=O)c1ccncc1 [SW393129, N-(3-(4-benzamidophenyl)-1-methyl-1H-pyrazol-5-yl)isonicotinamide] | 
11 | 6.37 | 6.1 | 7.18 | 6.52 | C#CCN(C(=O)c1ccccc1Cl)c1ccc(-c2cc(NC(=O)c3ccccc3)n(C)n2)cc1 [SW393174, N-(4-(5-Benzamido-1-methyl-1H-pyrazol-3-yl)phenyl)-2-chloro-N-(prop-2-yn-1-yl)benzamil-de] | 
12 | 4.05 | 0.2 | 0.48 | 3.73 | Cn1nc(-c2ccc(NC(=O)c3ccccc3)cc2)cc1NC(=O)c1cccnc1 [SW393128, N-(3-(4-benzamidophenyl)-1-methyl-1H-pyrazol-5-yl)nicotinamide] | 
13 | 0.53 | 0.195 | 0.18 | 0.77 | Cn1nc(-c2ccc(NC(=O)c3ccccc3)cc2)cc1NC(=O)c1cccc(C(=O)c2ccccc2)c1 [SW389154, N-(3-(4-Benzamidophenyl)-1-methyl-1H-pyrazol-5-yl)-3-benzoylbenzamide] | 
